Laboratory results published in publication PMC12533185 (Nature Communications, 2025).

Assays:
[1] = system: mechanical loading PTOA mice; assay: Walking speed in PTOA mice; type: in vivo, mouse; conditions: after six weeks, MP 4 mg/kg weekly
[2] = system: mechanical loading PTOA mice; assay: Micro-CT: osteophyte size in PTOA mice; type: in vivo, mouse
[3] = system: mechanical loading PTOA mice; assay: Joint histology; type: in vivo, mouse; conditions: six weeks
[4] = system: mechanical loading PTOA mice; assay: OARSI score in PTOA mice; type: in vivo, mouse
Col2α1 mRNA = Col2α1 mRNA expression in ATDC5 cells; type: cell-based, mouse; conditions: 10 μg/ml recombinant insulin, 7 days

Compound	walking speed, % of initial level [1]	block of osteophytes formation and ectopic mineralization [2]	joint histology [3]	OARSI score relative to MP&si-VPN@HA [4]	increase of Col2α1 expression (Col2α1 mRNA)
C[C@H]1C[C@@H]2[C@H]([C@@H](O)C[C@@]3(C)[C@H]2CC[C@]3(O)C(=O)CO)[C@@]2(C)C=CC(=O)C=C12 [MP, methylprednisolone]	18.22%	Neither MP nor si-VPN-2 could significantly block osteophytes formation and ectopic mineralization	large proteoglycan loss and cartilage erosion	5.67 fold	
insulin: recombinant insulin used to induce chondrogenesis of ATDC5 cells					~ 10 fold
